Publication PMC3327805 (Journal of Molecular Biology, 2012)

Molecular target: PBPA (penicillin-binding protein A) (Mycobacterium tuberculosis, UniProt P9WKD1)
Sequence (P9WKD1 34-491): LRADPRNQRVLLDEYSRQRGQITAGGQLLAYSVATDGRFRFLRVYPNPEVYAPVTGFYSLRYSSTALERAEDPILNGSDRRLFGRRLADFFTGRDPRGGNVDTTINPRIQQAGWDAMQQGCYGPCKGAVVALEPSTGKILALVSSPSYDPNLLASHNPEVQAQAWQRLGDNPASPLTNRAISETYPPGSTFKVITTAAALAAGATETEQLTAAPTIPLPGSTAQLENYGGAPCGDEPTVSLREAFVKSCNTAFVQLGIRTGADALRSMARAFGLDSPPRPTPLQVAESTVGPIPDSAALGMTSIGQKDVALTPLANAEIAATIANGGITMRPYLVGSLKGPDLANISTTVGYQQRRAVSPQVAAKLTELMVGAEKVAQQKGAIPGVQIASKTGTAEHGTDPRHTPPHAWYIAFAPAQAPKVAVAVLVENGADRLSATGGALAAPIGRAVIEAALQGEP

C[C@@H](O)[C@H]1C(=O)N2C(C(=O)O)=C(SCCN=CN)C[C@H]12 [Imipenem]
Method / Intrinsic fluorescence: 3,980 ± 180 M^-1 sec^-1
